This note sets out measurements from patent US8921559B2, “4-substituted-cyclohexylamino-4-piperidinyl-acetamide antagonists of CCR2” (Janssen Pharmaceutica NV, priority 2010, dated 2014).

pIC50: −log10 of the molar value. Where a name gives a salt, the structure may show the parent alone.

What is called pIC50 is the negative decadic logarithm of the IC50, by convention in mol/L.

For the assay, the target named is CCR2 (Homo sapiens (Human), UniProt P41597). Description: MCP-1 Receptor Binding Assay in THP-1 Cells. As to conditions: 0.5 nM 125I labeled MCP-1, 2 hours at 30° C., average of the two most similar values where more than one IC50, read-out: Inhibition of MCP-1 Binding IC50 CCR2 Binding. How it is done:
Compounds of the invention were subjected to various representative biological tests. […] MCP-1 Receptor Binding Assay in THP-1 Cells Human monocytic cell line THP-1 cells were obtained from American Type Culture Collection (Manassas, Va., USA). The THP-1 cells were grown in RPMI-1640 (RPMI: Roswell Park Memorial Institute Medium-cell culture growth media) supplemented with 10% fetal bovine serum in a humidified 5% CO2 atmosphere at 37° C. The cell density was maintained between […].
THP-1 (cells were incubated with 0.5 nM ^125I labeled MCP-1 (Perkin-Elmer Life Sciences, Inc. Boston, Mass.) in the presence of varying concentrations of either unlabeled MCP-1 (R & D Systems, Minneapolis, Minn.) or test compound for 2 hours at 30° C. in a 96 well plate. Cells were then harvested onto a filter plate, dried, and 20 μL of Microscint 20 was added to each well. Plates were counted in a TopCount NXT, Microplate Scintillation & Luminescence Counter (Perkin-Elmer Life Sciences, Inc. Boston, Mass.). Blank values (buffer only) were subtracted from all values and drug treated values were compared to vehicle treated values. 1 μM cold MCP-1 was used for nonspecific binding.

Chain of CCR2 (P41597 other isoform, or with tags, fused parts or gaps isoform P41597-2): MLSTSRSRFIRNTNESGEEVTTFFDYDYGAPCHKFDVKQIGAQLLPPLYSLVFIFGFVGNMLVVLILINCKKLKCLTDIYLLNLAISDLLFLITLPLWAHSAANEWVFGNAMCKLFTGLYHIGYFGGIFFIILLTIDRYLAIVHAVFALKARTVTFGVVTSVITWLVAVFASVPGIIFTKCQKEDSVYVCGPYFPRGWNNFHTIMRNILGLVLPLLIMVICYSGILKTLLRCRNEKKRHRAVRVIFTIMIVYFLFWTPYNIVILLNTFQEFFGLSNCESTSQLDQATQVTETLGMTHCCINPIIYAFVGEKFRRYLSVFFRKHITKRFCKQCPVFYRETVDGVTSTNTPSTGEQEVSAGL

With `NC(=O)C(NC1CCC(c2c[nH]c3ccccc23)CC1)C1CCN(C(=O)/C=C/c2ccc(Cl)cc2)CC1` (stereo not drawn) [Example 14, 2-[4-(1H-Indol-3-yl)-cyclohexylamino]-2-[1-(trans-4-chloro-cinnamoyl)piperidin-4-yl]-acetamide], the pIC50 was 6.89.
Turning to `NC(=O)C(NC1CCC(c2c[nH]c3ccccc23)CC1)C1CCN(C(=O)/C=C/c2ccccc2)CC1` (stereo not drawn) [Example 18, 2-[4-(1H-Indol-3-yl)-cyclohexylamino]-2-[1-(trans-cinnamoyl)piperidin-4-yl]-acetamide], the negative logarithm of the IC50 (pIC50) was 6.72.
On to `NC(=O)C(N[C@H]1CC[C@H](C2CNc3ccccc32)CC1)C1CCN(C(=O)/C=C/c2cc(F)c(F)c(F)c2)CC1` (stereo partly drawn) [Example 52, 2-{[4-(2,3-dihydro-1H-indol-3-yl)-trans-cyclohexylamino]-2-[1-(trans-3,4,5-trifluorocinnamoyl)-piperidin-4-yl]}-acetamide], for which the pIC50 was 6.02.
As for `NC(=O)C(NC1CCC(c2c[nH]c3ccccc23)CC1)C1CCN(C(=O)Nc2cccc(F)c2)CC1` (stereo not shown) [Example 20, 2-[4-(1H-Indol-3-yl)-cyclohexylamino]-2-[N-(3-fluorophenyl)piperidine-1-carboxamid-4-yl]-acetamide], the negative logarithm of the IC50 (pIC50) is 6.43.
With `CSc1cccc(NC(=O)N2CCC(C(NC3CCC(c4c[nH]c5ccccc45)CC3)C(N)=O)CC2)c1` (stereo not shown) [Example 31, 2-[4-(1H-Indol-3-yl)-cyclohexylamino]-2-[N-(3-{methysulfanyl}phenyl)-piperidine-1-carboxamid-4-yl]-acetamide], the negative logarithm of the IC50 (pIC50) is 6.15.
For `COC(=O)C(NC1CCC(c2c[nH]c3ccccc23)CC1)C1CCN(C(=O)/C=C/c2cc(F)c(F)c(F)c2)CC1` (stereo not drawn) [Example 49a, Methyl 2-[4-(1H-indol-3-yl)-trans-cyclohexylamino]-2-[1-(trans-3,4,5-trifluorocinnamoyl)piperidin-4-yl]-acetate], the negative-log IC50 (pIC50) was 6.39.
For `CCOC(=O)c1cccc(NC(=O)N2CCC(C(NC3CCC(c4c[nH]c5ccccc45)CC3)C(N)=O)CC2)c1` (stereo not shown) [Example 19, 2-[4-(1H-Indol-3-yl)-cyclohexylamino]-2-[N-(3-{ethoxycarbonyl}-phenyl)piperidine-1-carboxamid-4-yl]-acetamide], the pIC50 was 7.24.
In the case of `Cc1cccc(NC(=O)N2CCC(C(NC3CCC(c4c[nH]c5cccnc45)CC3)C(N)=O)CC2)c1` (stereo not shown) [Example 48, 2-[4-(1H-pyrrolo[3,2-b]pyridin-3-yl)cyclohexyl]amino-2-[N-(3-tolyl)piperidine-1-carboxamid-4-yl]-acetamide], the negative-log IC50 (pIC50) was 6.23.
In the case of `NC(=O)C(NC1CCC(c2c[nH]c3ncccc23)CC1)C1CCN(C(=O)/C=C/c2cc(F)cc(F)c2)CC1` (stereo not drawn) [Example 46, R,S-2-[4-(1H-pyrrolo[2,3-b]pyridin-3-yl)cyclohexyl]amino-2-[1-(trans-3,5-difluorocinnamoyl)-piperidin-4-yl]-acetamide], the pIC50 was 6.48.
For `COc1ccc(C2CCC(NC(C(N)=O)C3CCN(C(=O)/C=C/c4cc(F)c(F)c(F)c4)CC3)CC2)cn1` (stereo not drawn) [Example 50, 2-[4-(6-methoxypyridin-3-yl)cyclohexyl]amino-2-[1-(trans-3,4,5-trifluorocinnamoyl)-piperidin-4-yl]-acetamide], the pIC50 was 6.20.
Turning to `NC(=O)C(NC1CCC(c2c[nH]c3ccccc23)CC1)C1CCN(C(=O)Nc2ccc(OC(F)(F)F)cc2)CC1` (stereo not shown) [Example 11, 2-[4-(1H-Indol-3-yl)-cyclohexylamino]-2-[N-(4-{trifluoromethoxy}-phenyl)piperidine-1-carboxamid-4-yl]-acetamide], the pIC50 was 6.58.
In the case of `NC(=O)C(N[C@H]1CC[C@H](c2c[nH]c3cccnc32)CC1)C1CCN(C(=O)/C=C/c2ccccc2)CC1` (stereo partly drawn) [Example 43, R,S-2-[trans-4-(1H-pyrrolo[3,2-b]pyridin-3-yl)cyclohexyl]amino-2-[1-(trans-cinnamoyl)-piperidin-4-yl]-acetamide], the pIC50 was 6.91.
`NC(=O)C(NC1CCC(c2c[nH]c3ccccc23)CC1)C1CCN(C(=O)/C=C/c2ccc3c(c2)OC(F)(F)O3)CC1` (stereo not drawn) [Example 17, 2-[4-(1H-Indol-3-yl)-cyclohexylamino]-2-[1-(trans-3-(2,2-difluoro-1,3-benzodioxol-5-yl)prop-2-enoyl)piperidin-4-yl]-acetamide]: the negative-log IC50 (pIC50) was 6.75.
To `NC(=O)C(NC1CCC(c2c[nH]c3ccccc23)CC1)C1CCN(C(=O)/C=C/c2ccc(C(F)(F)F)cc2)CC1` (stereo not drawn) [Example 13, 2-[4-(1H-Indol-3-yl)-cyclohexylamino]-2-[1-(trans-4-{trifluoromethyl}-cinnamoyl)piperidin-4-yl]-acetamide] belongs 6.87.
`NC(=O)C(NC1CCC(c2c[nH]c3ccccc23)CC1)C1CCN(C(=O)Nc2ccc(Cl)c(Cl)c2)CC1` (single isomer, unassigned) [Example 4a, 2-[4-(1H-Indol-3-yl)-cyclohexylamino]-2-[N-(3,4-dichlorophenyl)piperidine-1-carboxamid-4-yl]-acetamide]: the pIC50 is 6.33.
As for `NC(=O)C(NC1CCC(c2c[nH]c3ccccc23)CC1)C1CCN(C(=O)Nc2cc(F)cc(F)c2)CC1` (stereo not shown) [Example 30, 2-[4-(1H-Indol-3-yl)-cyclohexylamino]-2-[N-(3,5-difluorophenyl)piperidine-1-carboxamid-4-yl]-acetamide], the pIC50 was 6.15.
As for `NC(=O)C(NC1CCC(c2c[nH]c3ccccc23)CC1)C1CCN(C(=O)Nc2ccc(C(F)(F)F)cc2)CC1` (stereo not shown) [Example 9, 2-[4-(1H-Indol-3-yl)-cyclohexylamino]-2-[N-(4-{trifluoromethyl}-phenyl)piperidine-1-carboxamid-4-yl]-acetamide], the negative-log IC50 (pIC50) was 6.89.
On to `NC(=O)C(NC1CCC(c2c[nH]c3ncccc23)CC1)C1CCN(C(=O)/C=C/c2cc(F)c(F)c(F)c2)CC1` (stereo not drawn) [Example 44, 2-[4-(1H-pyrrolo[2,3-b]pyridin-3-yl)cyclohexyl]amino-2-[1-(trans-3,4,5-trifluorocinnamoyl)-piperidin-4-yl]-acetamide], for which the pIC50 was 6.88.
Take `NC(=O)C(NC1CCC(c2c[nH]c3ccccc23)CC1)C1CCN(C(=O)/C=C/c2ccc3c(c2)CCC3)CC1` (stereo not drawn) [Example 12, 2-[4-(1H-Indol-3-yl)-cyclohexylamino]-2-[1-(trans-3-indan-5-ylprop-2-enoyl)piperidin-4-yl]-acetamide]: the pIC50 was 6.92.
Turning to `NC(=O)C(NC1CCC(c2c[nH]c3cccnc23)CC1)C1CCN(C(=O)/C=C/c2cc(F)c(F)c(F)c2)CC1` (single isomer, unassigned) [Example 39b, 2-[4-(1H-pyrrolo[3,2-b]pyridin-3-yl)cyclohexyl]amino-2-[1-(trans-3,4,5-trifluorocinnamoyl)-piperidin-4-yl]-acetamide], the pIC50 was 6.22.
Consider `O=C(O)C(N[C@H]1CC[C@H](c2c[nH]c3ccccc32)CC1)C1CCN(C(=O)Nc2ccc(Cl)c(Cl)c2)CC1` (stereo partly drawn) [Example 27, 2-[4-(1H-Indol-3-yl)-trans-cyclohexylamino]-2-[N-(3,4-dichlorophenyl)-piperidine-1-carboxamid-4-yl]-acetic acid hydrochloride], for which the pIC50 was 6.64.
For `NC(=O)C(NC1CCC(c2c[nH]c3ccncc23)CC1)C1CCN(C(=O)Nc2ccc(Cl)c(Cl)c2)CC1` (stereo not shown) [Example 40, 2-[4-(1H-pyrrolo[3,2-c]pyridin-3-yl)cyclohexyl]amino-2-[N-(3,4-dichlorophenyl)piperidine-1-carboxamid-4-yl]-acetamide], the pIC50 is 7.40.
